Experimental data as given in ChEMBL document CHEMBL3046602, “Chiral 1,5-disubstituted 1,3,5-hexahydrotriazine-2-N-nitroimine analogues as novel potent neonicotinoids: Synthesis, insecticidal evaluation and molecular docking studies” (2011).

Experiments:
Assay type in all cases: functional
Aphis medicaginis [1] = experiment: Insecticidal activity against Aphis medicaginis assessed as insect mortality at 10 mg/L measured after 72 hr post compound treatment
Aphis medicaginis [2] = experiment: Insecticidal activity against Aphis medicaginis assessed as insect mortality at 100 mg/L measured after 72 hr post compound treatment
Aphis medicaginis [3] = experiment: Insecticidal activity against Aphis medicaginis assessed as insect mortality at 500 mg/L measured after 72 hr post compound treatment

SMILES	mortality at 10 µg/mL (Aphis medicaginis [1])	mortality at 100 µg/mL (Aphis medicaginis [2])	mortality at 500 µg/mL (Aphis medicaginis [3])
CCOC(=O)[C@H](C)N1CN/C(=N\[N+](=O)[O-])N(Cc2cnc(Cl)s2)C1	≥ 60%	≥ 60%	≥ 80%
CCOC(=O)CC(CC(=O)OCC)N1CN/C(=N\[N+](=O)[O-])N(Cc2ccc(Cl)nc2)C1	≥ 60%	≥ 70%	100%
CCOC(=O)[C@H](Cc1ccccc1)N1CN/C(=N\[N+](=O)[O-])N(Cc2cnc(Cl)s2)C1	–	≥ 60%	≥ 70%
CCOC(=O)CN1CN/C(=N\[N+](=O)[O-])N(Cc2cnc(Cl)s2)C1	≥ 60%	≥ 70%	≥ 80%
CCOC(=O)CCCN1CN/C(=N\[N+](=O)[O-])N(Cc2ccc(Cl)nc2)C1	≥ 80%	100%	100%
CCOC(=O)[C@H](CCSC)N1CN/C(=N\[N+](=O)[O-])N(Cc2cnc(Cl)s2)C1	≥ 50%	≥ 60%	≥ 90%
CCOC(=O)[C@H](CC(C)C)N1CN/C(=N\[N+](=O)[O-])N(Cc2cnc(Cl)s2)C1	≥ 80%	100%	100%
CCOC(=O)[C@H](CC(C)C)N1CN/C(=N\[N+](=O)[O-])N(Cc2ccc(Cl)nc2)C1	≥ 70%	≥ 80%	100%
CCOC(=O)CC(CC(=O)OCC)N1CN/C(=N\[N+](=O)[O-])N(Cc2cnc(Cl)s2)C1	≥ 60%	≥ 70%	≥ 90%
CCOC(=O)CCCN1CN/C(=N\[N+](=O)[O-])N(Cc2cnc(Cl)s2)C1	≥ 80%	100%	100%
CCOC(=O)CCN1CN/C(=N\[N+](=O)[O-])N(Cc2ccc(Cl)nc2)C1	≥ 70%	≥ 80%	100%
CCOC(=O)[C@H](CCSC)N1CN/C(=N\[N+](=O)[O-])N(Cc2ccc(Cl)nc2)C1	–	≥ 60%	≥ 70%
CCOC(=O)[C@H](Cc1ccccc1)N1CN/C(=N\[N+](=O)[O-])N(Cc2ccc(Cl)nc2)C1	≥ 50%	≥ 60%	≥ 70%
CCOC(=O)[C@@H](c1ccc(Cl)cc1)N1CN/C(=N\[N+](=O)[O-])N(Cc2ccc(Cl)nc2)C1	≥ 50%	≥ 60%	≥ 70%
CCOC(=O)[C@H]([C@@H](C)CC)N1CN/C(=N\[N+](=O)[O-])N(Cc2ccc(Cl)nc2)C1	≥ 60%	≥ 80%	≥ 80%
CCOC(=O)C[C@@H](C(=O)OCC)N1CN/C(=N\[N+](=O)[O-])N(Cc2cnc(Cl)s2)C1	≥ 70%	≥ 80%	≥ 90%
CCOC(=O)CN1CN/C(=N\[N+](=O)[O-])N(Cc2ccc(Cl)nc2)C1	≥ 60%	≥ 70%	≥ 80%
CCOC(=O)[C@H](C(C)C)N1CN/C(=N\[N+](=O)[O-])N(Cc2cnc(Cl)s2)C1	≥ 50%	≥ 60%	≥ 80%
CCOC(=O)[C@H](C(C)C)N1CN/C(=N\[N+](=O)[O-])N(Cc2ccc(Cl)nc2)C1	≥ 60%	≥ 70%	≥ 80%
CCOC(=O)C[C@@H](C(=O)OCC)N1CN/C(=N\[N+](=O)[O-])N(Cc2ccc(Cl)nc2)C1	≥ 60%	≥ 70%	≥ 90%
CCOC(=O)[C@@H](c1ccc(Cl)cc1)N1CN/C(=N\[N+](=O)[O-])N(Cc2cnc(Cl)s2)C1	≥ 90%	100%	100%
O=[N+]([O-])/N=C1\NCCN1Cc1ccc(Cl)nc1 [IMIDACLOPRID]	100%	100%	100%
CCOC(=O)[C@H](C)N1CN/C(=N\[N+](=O)[O-])N(Cc2ccc(Cl)nc2)C1	≥ 50%	≥ 60%	≥ 70%
CCOC(=O)[C@H]([C@@H](C)CC)N1CN/C(=N\[N+](=O)[O-])N(Cc2cnc(Cl)s2)C1	≥ 50%	≥ 60%	≥ 80%
CCOC(=O)CCN1CN/C(=N\[N+](=O)[O-])N(Cc2cnc(Cl)s2)C1	≥ 60%	≥ 70%	100%
CN1COCN(Cc2cnc(Cl)s2)/C1=N\[N+](=O)[O-] [THIAMETHOXAM]	100%	100%	100%
